Reference: ChEMBL document CHEMBL1142177, “Effects of age, gender, and race/ethnicity on the pharmacokinetics of posaconazole in healthy volunteers” (Antimicrob Agents Chemother, 2007)

How the values were obtained:
Format in all cases: ADME, organism-based
[1] = Half life in black racial/ethnic human plasma at 400 mg, po twice daily after 8 days
Homo sapiens [2] = experiment: (§1) AUC (0-12 hrs) in >=65 yr old human plasma at 400 mg, po twice daily after 8 days; parameters: time < 12 hr, dose 400 mg, route oral; details: in vivo
Homo sapiens [3] = experiment: Apparent total clearance in black racial/ethnic human plasma at 400 mg, po twice daily after 8 days; details: in vivo, 192 h
Homo sapiens [4] = experiment: Apparent total clearance in >=65 yr old human plasma at 400 mg, po twice daily after 8 days; details: in vivo, 192 h
Homo sapiens [5] = experiment: Apparent total clearance in 18-45 yr old human plasma at 400 mg, po twice daily after 8 days; details: in vivo, 192 h
[6] = Tmax in 18-45 yr old man plasma at 400 mg, po twice daily after 8 days; details: male, human
Homo sapiens [7] = experiment: Apparent total clearance in >=65 yr old man plasma at 400 mg, po twice daily after 8 days; details: in vivo, 192 h
Homo sapiens [8] = experiment: AUC (0-12 hrs) in 18-45 yr old man plasma at 400 mg, po twice daily after 8 days; parameters: time < 12 hr, dose 400 mg, route oral; details: in vivo
Homo sapiens [9] = experiment: AUC (0-12 hrs) in 18-45 yr old human plasma at 400 mg, po twice daily after 8 days; parameters: dose 400 mg, time < 12 hr, route oral; details: in vivo
[10] = Cmax in >=65 yr old man plasma at 400 mg, po twice daily after 8 days; parameters: dose 400 mg, route oral; details: male, human
[11] = Tmax in black racial/ethnic human plasma at 400 mg, po twice daily after 8 days
Homo sapiens [12] = experiment: Apparent total clearance in >=65 yr old woman plasma at 400 mg, po twice daily after 8 days; details: in vivo, 192 h
[13] = Cmax in >=65 yr old woman plasma at 400 mg, po twice daily after 8 days; parameters: dose 400 mg, route oral; details: female, human
[14] = Half life in >=65 yr old man plasma at 400 mg, po twice daily after 8 days; details: male, human
[15] = Tmax in >=65 yr old woman plasma at 400 mg, po twice daily after 8 days; details: female, human
[16] = Half life in >=65 yr old woman plasma at 400 mg, po twice daily after 8 days; details: female, human
[17] = Cmax in 18-45 yr old man plasma at 400 mg, po twice daily after 8 days; parameters: dose 400 mg, route oral; details: male, human
[18] = Cmax in white racial/ethnic human plasma at 400 mg, po twice daily after 8 days; parameters: dose 400 mg, route oral
Homo sapiens [19] = experiment: AUC (0-12 hrs) in black racial/ethnic human plasma at 400 mg, po twice daily after 8 days; parameters: dose 400 mg, time < 12 hr, route oral; details: in vivo
[20] = Tmax in white racial/ethnic human plasma at 400 mg, po twice daily after 8 days
[21] = Half life in 18-45 yr old human plasma at 400 mg, po twice daily after 8 days
[22] = Tmax in >=65 yr old man plasma at 400 mg, po twice daily after 8 days; details: male, human
[23] = Tmax in >=65 yr old human plasma at 400 mg, po twice daily after 8 days
Homo sapiens [24] = experiment: Apparent total clearance in 18-45 yr old man plasma at 400 mg, po twice daily after 8 days; details: in vivo, 192 h
[25] = Half life in white racial/ethnic human plasma at 400 mg, po twice daily after 8 days
[26] = Cmax in black racial/ethnic human plasma at 400 mg, po twice daily after 8 days; parameters: dose 400 mg, route oral
Homo sapiens [27] = experiment: Apparent total clearance in 18-45 yr old woman plasma at 400 mg, po twice daily after 8 days; details: in vivo, 192 h
Homo sapiens [28] = experiment: AUC (0-12 hrs) in 18-45 yr old woman plasma at 400 mg, po twice daily after 8 days; parameters: time < 12 hr, dose 400 mg, route oral; details: in vivo
Homo sapiens [29] = experiment: Apparent total clearance in white racial/ethnic human plasma at 400 mg, po twice daily after 8 days; details: in vivo, 192 h
Homo sapiens [30] = experiment: AUC (0-12 hrs) in >=65 yr old woman plasma at 400 mg, po twice daily after 8 days; parameters: dose 400 mg, time < 12 hr, route oral; details: in vivo
[31] = Tmax in 18-45 yr old woman plasma at 400 mg, po twice daily after 8 days; details: female, human
[32] = Half life in 18-45 yr old woman plasma at 400 mg, po twice daily after 8 days; details: female, human
[33] = Cmax in 18-45 yr old human plasma at 400 mg, po twice daily after 8 days; parameters: dose 400 mg, route oral
[34] = Cmax in 18-45 yr old woman plasma at 400 mg, po twice daily after 8 days; parameters: dose 400 mg, route oral; details: female, human
[35] = Half life in 18-45 yr old man plasma at 400 mg, po twice daily after 8 days; details: male, human
[36] = Cmax in >=65 yr old human plasma at 400 mg, po twice daily after 8 days; parameters: dose 400 mg, route oral
[37] = Tmax in 18-45 yr old human plasma at 400 mg, po twice daily after 8 days
Homo sapiens [38] = experiment: AUC (0-12 hrs) in >=65 yr old man plasma at 400 mg, po twice daily after 8 days; parameters: time < 12 hr, dose 400 mg, route oral; details: in vivo
[39] = as §1
Homo sapiens [40] = experiment: AUC (0-12 hrs) in white racial/ethnic human plasma at 400 mg, po twice daily after 8 days; parameters: time < 12 hr, dose 400 mg, route oral; details: in vivo

Work on `CC[C@@H]([C@H](C)O)n1ncn(-c2ccc(N3CCN(c4ccc(OC[C@@H]5CO[C@@](Cn6cncn6)(c6ccc(F)cc6F)C5)cc4)CC3)cc2)c1=O` [POSACONAZOLE] yielded a half-life [1] of 32.2 h, an AUC (Homo sapiens [2]) of 35444 ng·h/mL and a CL (Homo sapiens [3]) of 37 L/h. It also gave a CL (Homo sapiens [4]) of 26.7 L/h, a CL (Homo sapiens [5]) of 33.1 L/h and a Tmax [6] of 4 h. It also gave a CL (Homo sapiens [7]) of 28.1 L/h, an AUC (Homo sapiens [8]) of 27784 ng·h/mL and an AUC (Homo sapiens [9]) of 26740 ng·h/mL. For the same compound, the Cmax [10] was 3250 ng/mL, the Tmax [11] was 5 h and the CL (Homo sapiens [12]) was 25.4 L/h. It also gave a Cmax [13] of 3500 ng/mL, a half-life [14] of 37.7 h and a Tmax [15] of 6 h. It also gave a half-life [16] of 42.4 h, a Cmax [17] of 2680 ng/mL and a Cmax [18] of 2860 ng/mL. For the same compound, the AUC (Homo sapiens [19]) was 25107 ng·h/mL, the Tmax [20] was 5 h and the half-life [21] was 31.6 h. It also gave a Tmax [22] of 5 h, a Tmax [23] of 5 h and a CL (Homo sapiens [24]) of 33.5 L/h. For the same compound, the half-life [25] was 37.3 h, the Cmax [26] was 2400 ng/mL and the CL (Homo sapiens [27]) was 32.6 L/h. It also gave an AUC (Homo sapiens [28]) of 25507 ng·h/mL, a CL (Homo sapiens [29]) of 54 L/h and an AUC (Homo sapiens [30]) of 37924 ng·h/mL. The Tmax [31] was 5 h, the half-life [32] was 31.9 h and the Cmax [33] was 2610 ng/mL. The Cmax [34] was 2520 ng/mL, the half-life [35] was 31.3 h and the Cmax [36] was 3370 ng/mL. For the same compound, the Tmax [37] was 5 h, the AUC (Homo sapiens [38]) was 32963 ng·h/mL and the half-life [39] was 41.8 h. For the same compound, the AUC (Homo sapiens [40]) was 30091 ng·h/mL.
